Measured values from ChEMBL document CHEMBL1131484, “Human growth hormone-releasing hormone hGHRH(1-29)-NH2: systematic structure-activity relationship studies” (J Med Chem, 1998).
“And” between values parts separate entries of the source, which are not always exact repeats. Identical values can stand only once.

The compounds below were run against T1, Growth hormone-releasing hormone receptor (Rattus norvegicus) (UniProt Q02644) (assay: Potency for growth hormone releasing hormone receptor (GHRFR) relative to human GHRH(1-40)OH- in the rat pituitary cell culture assay). Conditions: Pituitary gland cell.
T1 sequence (whole entry): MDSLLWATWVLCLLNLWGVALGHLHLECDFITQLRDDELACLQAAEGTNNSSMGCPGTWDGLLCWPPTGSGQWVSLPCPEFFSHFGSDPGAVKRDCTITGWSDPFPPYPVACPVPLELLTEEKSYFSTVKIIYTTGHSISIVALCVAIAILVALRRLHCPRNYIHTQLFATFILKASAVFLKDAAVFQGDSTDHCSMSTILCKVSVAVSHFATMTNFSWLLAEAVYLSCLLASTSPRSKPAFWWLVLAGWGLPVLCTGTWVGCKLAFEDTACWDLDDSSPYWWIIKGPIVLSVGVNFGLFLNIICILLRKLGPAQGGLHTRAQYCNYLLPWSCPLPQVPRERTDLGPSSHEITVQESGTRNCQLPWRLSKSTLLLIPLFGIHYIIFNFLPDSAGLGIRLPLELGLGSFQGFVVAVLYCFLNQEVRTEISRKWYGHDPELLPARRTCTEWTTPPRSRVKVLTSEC
Format: functional, cell-based

| Compound | Relative potency |
| --- | --- |
| CCCC[C@H](NC(=O)[C@@H](NC(=O)[C@H](CC(=O)O)NC(=O)[C@H](CCC(N)=O)NC(=O)[C@H](CC(C)C)NC(=O)[C@H](CC(C)C)NC(=O)[C@H](CCCCN)NC(=O)[C@H](CCCN=C(N)N)NC(=O)[C@H](C)NC(=O)[C@H](CO)NC(=O)[C@H](CC(C)C)NC(=O)[C@H](CCC(N)=O)NC(=O)CNC(=O)[C@H](CC(C)C)NC(=O)[C@@H](NC(=O)[C@H](CCCCN)NC(=O)[C@H](CCCN=C(N)N)NC(=O)[C@H](Cc1ccc(O)cc1)NC(=O)[C@H](CO)NC(=O)[C@H](CC(N)=O)NC(=O)[C@@H](NC(=O)[C@H](Cc1ccccc1)NC(=O)[C@@H](NC(=O)[C@H](C)NC(=O)[C@H](CC(=O)O)NC(=O)[C@H](C)NC(=O)[C@@H](N)Cc1ccc(O)cc1)[C@@H](C)CC)[C@@H](C)O)C(C)C)[C@@H](C)CC)C(=O)N[C@@H](CO)C(=O)N[C@@H](CCCN=C(N)N)C(N)=O | 2.38 |
| H-YADAIFTNSYRAVLGQLSARKLLQDIMSR-NH2 | 0.16 |
| H-YADAIFTASYRKVLGQLSARKLLQDIMSR-NH2 | 2.1 |
| H-YADAIFTNSYRKVLGQLSARALLQDIMSR-NH2 | 0.27 |
| H-YADAIFTNSYRKVLGQLAARKLLQDIMSR-NH2 | 1.6 and 1.4 |
| H-YADAAFTNSYRKVLGQLSARKLLQDIMSR-NH2 | 0.1 |
| CC[C@H](C)[C@H](NC(=O)[C@H](C)NC(=O)[C@H](CC(=O)O)NC(=O)[C@H](C)NC(=O)[C@@H](N)Cc1ccc(O)cc1)C(=O)N[C@@H](Cc1ccccc1)C(=O)N[C@H](C(=O)N[C@@H](CC(N)=O)C(=O)N[C@@H](CO)C(=O)N[C@@H](Cc1ccc(O)cc1)C(=O)N[C@@H](CCCN=C(N)N)C(=O)N[C@@H](CCCCN)C(=O)N[C@H](C(=O)N[C@@H](CC(C)C)C(=O)NCC(=O)N[C@@H](CCC(N)=O)C(=O)N[C@@H](CC(C)C)C(=O)N[C@@H](CO)C(=O)N[C@@H](C)C(=O)N[C@@H](CCCN=C(N)N)C(=O)N[C@@H](CCCCN)C(=O)N[C@@H](CC(C)C)C(=O)N[C@@H](CC(C)C)C(=O)N[C@@H](CCC(N)=O)C(=O)N[C@@H](CC(=O)O)C(=O)N[C@H](C(=O)N[C@@H](CCSC)C(=O)N[C@@H](CO)C(=O)N[C@@H](CCCN=C(N)N)C(=O)N[C@@H](CCC(N)=O)C(=O)N[C@H](CCC(N)=O)C(=O)NCC(=O)N[C@@H](CCC(=O)O)C(=O)N[C@@H](CO)C(=O)N[C@@H](CC(N)=O)C(=O)N[C@@H](CCC(N)=O)C(=O)N[C@@H](CCC(=O)O)C(=O)N[C@@H](CCCN=C(N)N)C(=O)NCC(=O)N[C@@H](C)C(=O)O)[C@@H](C)CC)C(C)C)[C@@H](C)O | 1 |
| H-YADAIFTNSYRKVLAQLSARKLLQDIMSR-NH2 | 5.6 |
| H-YADAIFTNSYRKVLGQLSARKLLQDIASR-NH2 | 0.32 |
| CCCC[C@H]1NC(=O)[C@H]([C@@H](C)CC)NC(=O)[C@@H](NC(=O)[C@H](Cc2c[nH]cn2)NC(=O)[C@H](CC(C)C)NC(=O)[C@H](CC(C)C)NC(=O)[C@H](CCCCN)NC(=O)[C@H](CCCN=C(N)N)NC(=O)[C@H](Cc2ccccc2)NC(=O)[C@@H](NC(=O)[C@H](CC(C)C)NC(=O)[C@H](CCC(N)=O)NC(=O)[C@H](C)NC(=O)[C@H](CC(C)C)NC(=O)[C@@H](NC(=O)[C@H](CCCN=C(N)N)NC(=O)[C@H](CCCN=C(N)N)NC(=O)[C@H](Cc2ccc(O)cc2)NC(=O)[C@H](CO)NC(=O)[C@H](CO)NC(=O)[C@@H](NC(=O)[C@H](Cc2ccccc2)NC(=O)[C@@H](NC(=O)[C@H](C)NC(=O)[C@H](CC(=O)O)NC(=O)[C@H](C)NC(=O)[C@@](C)(N)Cc2c[nH]cn2)[C@@H](C)CC)[C@@H](C)O)[C@@H](C)CC)[C@@H](C)CC)CSSC[C@H](C(N)=O)NC(=O)[C@H](CC(N)=O)NC1=O | 1.1 |
| H-YADAIATNSYRKVLGQLSARKLLQDIMSR-NH2 | 0 |

The remaining lines, values ahead:

| Relative potency | Compound |
| --- | --- |
| 0.23 | CC[C@H](C)[C@H](NC(=O)[C@H](C)NC(=O)[C@H](CC(=O)O)NC(=O)[C@H](C)NC(=O)[C@@H](N)Cc1ccc(O)cc1)C(=O)N[C@@H](Cc1ccccc1)C(=O)N[C@H](C(=O)N[C@@H](CC(N)=O)C(=O)N[C@@H](CO)C(=O)N[C@@H](Cc1ccc(O)cc1)C(=O)N[C@@H](CCCN=C(N)N)C(=O)N[C@@H](CCCCN)C(=O)N[C@H](C(=O)N[C@@H](CC(C)C)C(=O)NCC(=O)N[C@@H](CCC(N)=O)C(=O)N[C@@H]1CCC(=O)NCCCC[C@@H](C(=O)N[C@H](CCCCN)C(=O)N[C@@H](CC(C)C)C(=O)N[C@@H](CC(C)C)C(=O)N[C@@H](CCC(N)=O)C(=O)N[C@@H](CC(=O)O)C(=O)N[C@H](C(=O)N[C@@H](CCSC)C(=O)N[C@@H](CO)C(=O)N[C@@H](CCCN=C(N)N)C(N)=O)[C@@H](C)CC)NC(=O)[C@H](C)NC(=O)[C@@H](CO)NC1=O)C(C)C)[C@@H](C)O |
| 4.5 | CC[C@@H](C)[C@@H](NC(=O)[C@@H](CC(=O)O)NC(=O)[C@H]1CCCCNC(=O)CC[C@H](NC(=O)[C@H](CCCN=C(N)N)NC(=O)[C@H](C)NC(=O)[C@H](CO)NC(=O)[C@H](CC(C)C)NC(=O)[C@H](CCC(N)=O)NC(=O)CNC(=O)[C@H](CC(C)C)NC(=O)[C@@H](NC(=O)[C@H](CCCCN)NC(=O)[C@H](CCCN=C(N)N)NC(=O)[C@H](Cc2ccc(O)cc2)NC(=O)[C@H](CO)NC(=O)[C@H](CC(N)=O)NC(=O)[C@@H](NC(=O)[C@H](Cc2ccccc2)NC(=O)[C@@H](NC(=O)[C@H](C)NC(=O)[C@H](CC(=O)O)NC(=O)[C@H](C)NC(=O)[C@@H](N)Cc2ccc(O)cc2)[C@@H](C)CC)[C@@H](C)O)C(C)C)C(=O)N[C@@H](CC(C)C)C(=O)N[C@H](CC(C)C)C(=O)N1)C(=O)N[C@H](CCSC)C(=O)N[C@H](CO)C(=O)N[C@H](CCCN=C(N)N)C(N)=O |
| 0.3 | H-YADAIFTNSYRKVLGQLSAAKLLQDIMSR-NH2 |
| 2.2 | CC[C@H](C)[C@H](NC(=O)[C@H](C)NC(=O)[C@H](CC(=O)O)NC(=O)[C@H](C)NC(=O)[C@@H](N)Cc1ccc(O)cc1)C(=O)N[C@@H](Cc1ccccc1)C(=O)N[C@H](C(=O)N[C@@H](CC(N)=O)C(=O)N[C@@H](CO)C(=O)N[C@@H](Cc1ccc(O)cc1)C(=O)N[C@@H](CCCN=C(N)N)C(=O)N[C@@H](CCCCN)C(=O)N[C@H](C(=O)N[C@@H](CC(C)C)C(=O)NCC(=O)N[C@@H](CCC(N)=O)C(=O)N[C@@H](CC(C)C)C(=O)N[C@@H](CO)C(=O)N[C@@H](C)C(=O)N[C@@H](CCCN=C(N)N)C(=O)N[C@@H](CCCCN)C(=O)N[C@@H](CC(C)C)C(=O)N[C@@H](CC(C)C)C(=O)N[C@@H](CCC(N)=O)C(=O)N[C@@H](CC(=O)O)C(=O)N[C@H](C(=O)N[C@@H](CCSC)C(=O)N[C@@H](C)C(=O)N[C@@H](CCCN=C(N)N)C(N)=O)[C@@H](C)CC)C(C)C)[C@@H](C)O (stereo in doubt; 39) |
| 0.4 | CC[C@@H](C)[C@@H](NC(=O)[C@@H](CC(=O)O)NC(=O)[C@@H](CCC(N)=O)NC(=O)[C@@H](CC(C)C)NC(=O)[C@H]1CCCCNC(=O)CC[C@H](NC(=O)[C@H](CO)NC(=O)[C@H](CC(C)C)NC(=O)[C@H](CCC(N)=O)NC(=O)CNC(=O)[C@H](CC(C)C)NC(=O)[C@@H](NC(=O)[C@H](CCCCN)NC(=O)[C@H](CCCN=C(N)N)NC(=O)[C@H](Cc2ccc(O)cc2)NC(=O)[C@H](CO)NC(=O)[C@H](CC(N)=O)NC(=O)[C@@H](NC(=O)[C@H](Cc2ccccc2)NC(=O)[C@@H](NC(=O)[C@H](C)NC(=O)[C@H](CC(=O)O)NC(=O)[C@H](C)NC(=O)[C@@H](N)Cc2ccc(O)cc2)[C@@H](C)CC)[C@@H](C)O)C(C)C)C(=O)N[C@@H](CCCN=C(N)N)C(=O)N[C@H](CCCCN)C(=O)N1)C(=O)N[C@@H](CCSC)C(=O)N[C@@H](CO)C(=O)N[C@@H](CCCN=C(N)N)C(N)=O |
| 0.088 | CC[C@@H](C)[C@@H](NC(=O)[C@@H](C)NC(=O)[C@@H](CC(=O)O)NC(=O)[C@@H](C)NC(=O)[C@H](N)Cc1ccc(O)cc1)C(=O)N[C@H](Cc1ccccc1)C(=O)N[C@@H](C(=O)N[C@H](CC(N)=O)C(=O)N[C@H](CO)C(=O)N[C@H]1CCC(=O)NCCCC[C@H](C(=O)N[C@@H](CC(C)C)C(=O)NCC(=O)N[C@H](CCC(N)=O)C(=O)N[C@H](CC(C)C)C(=O)N[C@H](CO)C(=O)N[C@H](C)C(=O)N[C@H](CCCN=C(N)N)C(=O)N[C@H](CCCCN)C(=O)N[C@H](CC(C)C)C(=O)N[C@H](CC(C)C)C(=O)N[C@H](CCC(N)=O)C(=O)N[C@H](CC(=O)O)C(=O)N[C@@H](C(=O)N[C@H](CCSC)C(=O)N[C@H](CO)C(=O)N[C@H](CCCN=C(N)N)C(N)=O)[C@H](C)CC)NC(=O)[C@@H](CCCCN)NC(=O)[C@H](CCCN=C(N)N)NC1=O)[C@H](C)O |
| 1.1 | H-YADAIFTNSYRKVLGQLSARKLLQDAMSR-NH2 |
| 1.3 | CC[C@H](C)[C@H](NC(=O)[C@H](C)NC(=O)[C@H](CC(=O)O)NC(=O)[C@H](C)NC(=O)[C@@H](N)Cc1ccc(O)cc1)C(=O)N[C@@H](Cc1ccccc1)C(=O)N[C@H](C(=O)N[C@@H](CC(N)=O)C(=O)N[C@@H](CO)C(=O)N[C@@H](Cc1ccc(O)cc1)C(=O)N[C@@H](CCCN=C(N)N)C(=O)N[C@@H](CCCCN)C(=O)N[C@H](C(=O)N[C@@H](CC(C)C)C(=O)NCC(=O)N[C@@H](CCC(N)=O)C(=O)N[C@@H](CC(C)C)C(=O)N[C@@H](CO)C(=O)N[C@@H](C)C(=O)N[C@H](CCCN=C(N)N)C(=O)N[C@H](CCCCN)C(=O)N[C@H](CC(C)C)C(=O)N[C@H](CC(C)C)C(=O)N[C@@H]1CCC(=O)NCCCC[C@@H](C(=O)N[C@@H](CO)C(=O)N[C@@H](CCCN=C(N)N)C(N)=O)NC(=O)[C@H]([C@@H](C)CC)NC(=O)[C@@H](CC(=O)O)NC1=O)C(C)C)[C@@H](C)O |
